Laboratory results: patent US20110028453A1, “Treating Negative Symptoms of Schizophrenia Associated with Defective Neuregulin 1” (priority 2009, published 2011)

Experiments:
ErbB4 = experiment: Western blot of ErbB4 level in treated A172 cells; format: cell-based, human
Experimental: (§1) A172 cells were cultured in DMEM supplemented with 10% heat-inactivated fetal bovine serum (FBS; Hyclone, Logan, Utah), 100 U/mL penicillin and 0.1 mg/mL streptomycin (Invitrogen, Carlsbad, Calif.) at 37° C. in a humidified incubator with 5% CO2 and 95% air.
(§2) The cells were lysed and the lysates were suspended in a RIPA buffer (50 mM HEPES (pH 7.4), 4 mM EDTA, 150 mM NaCl, 10 mM Na4P2O7, 100 mM NaF, 2 mM Na3VO4, 1% Triton X-100, 0.25% sodium deoxycholate, 50 mM 4-(2-aminoethyl) benzene sulfonylfluoride, 50 μg/mL leupeptin, and 20 μg/mL aprotinin). For each cell sample, 30˜50 μg of total protein, along with a molecular weight ladder were resolved on 8% a bis-tris polyacrylamide NuPAGE gels (90˜130 V, 2 hrs) via electrophoresis and then transferred onto a nitrocellulose membrane (Invitrogen) (550 mA, 90 min) The membrane was first blocked using phosphate buffered saline (PBS) with 5% dry skimmed milk powder for 1 hr at room temperature and then incubated at 4° C. in the presence of mouse anti-serotonin transporter antibody (MAB1564; Chemicon), rabbit anti-norepinephrine transporter antibody (AB2234; Millipore, Bedford, Mass.), or anti-β-actin antibody (MAB1501, Chemicon) overnight. The antibody was diluted in phosphate buffered saline containing 0.1% Tween-20 (PBST). Afterwards, the membrane was washed with PBST and then incubated with a peroxidase-conjugated secondary antibody in PBST. After being washed for several times, the membrane was subjected to the enhanced chemiluminescence (ECL) analysis, following the method described in Yeh et al., 2009, Glia, 57:454-464, using an ECL kit purchased from Santa Cruz Biotechnology and Kodak X-OMAT LS film (Eastman Kodak, Rochester, N.Y.).
(§3) A172 cells were cultured in the presence of serotonin at a concentration of 1, 3, 10, 30, or 100 μM. The levels of both NGR1 and ErbB4, the major receptor of NRG1 in the brain, in the treated A172 cells were examined by Western blot as described above at various time points (e.g., 2 hr, 4 hr, 8 hr, 12 hr, and 24 hr post treatment), using rabbit anti-NRG1 precursor antibody no. […]

NRG1 = experiment: Western blot of NRG1 level in treated A172 cells; format: cell-based, human
Experimental: as §1, §2, §3

[1] = system: wild-type and NRG1+/- mice; experiment: Forced swimming test; format: in vivo, mouse; conditions: for immobility period: desipramine 20 mg/kg i.p.; for effect on immobility time: i.p., desipramine 20, imipramine 15, venlafaxine 15 mg/kg
Source text: (§4) Transmembrane (TM)-domain NRG1 heterozygous mutant mice (129S5-Nrg1tm1Lex, ID#011745-UCD) were obtained from Mutant Mouse Regional Resource Centers (MMRRC) and backcrossed with B6 mice. NRG1^+/− mice and their wild-type littermates were generated by in-house mating of male NRG1^+/− mice and female C57BL/6 mice. Heterozygous crossing has been practiced for at least 7 generations to obtain animals with a homogeneous C57BL/6 genetic background except for the TM-mutated nrg1 gene locus. Mouse genotypes were determined by PCR analysis. Animals were housed (five per cage) under a 12-hr light/dark cycle (lights on from 8:00 a.m. to 8:00 p.m.) at constant room temperature and relative humidity with food and water available ad libitum. All experiments were started at 10-week-old period at weight of 25-30 g.
(§5) Before undergoing any behavioral test, animals were handled by an investigator for at least 3 days so that they became familiar with the investigator. The animals had been placed under laboratory conditions for at least 1 hr before each behavioral test.
To perform the forced swimming test, each mouse, administered via intraperitoneal injection with either one of the above-listed serotonin transporter inhibitors or saline 30-60 minutes ago, was placed individually in a clear glass cylinder (height, 25 cm; diameter, 15 cm) containing water (depth: 15 cm; temperature: 26±1° C.). Its behavior was recorded by a video camera during a 6-min testing period. The duration of immobility was measured during the last 4 min after a 2-min habituation period.

[2] = system: wild-type and NRG1+/- mice; experiment: Social withdrawal behavior evaluation; format: in vivo, mouse; parameters: key to social approach change score: score: +1/s social side, 0 center, -1 nonsocial; presence minus absence; conditions: i.p. 30 min before testing; for social approach change score: NRG1+/- mice; for social approach change score, effect: wild-type mice, same doses
Source text: as §4, §5
The social withdrawal behavior evaluation study was performed following the method described in Sankoorikal et al., Biol. Psychiatry 59:415-423, 2006 with modifications. Briefly, this study was carried out in a behavioral testing apparatus containing two end chambers and one middle chamber. A clear Plexiglas cylinder was placed in each of the two end chambers, one being designated as “social side” (where stimulus to mice was introduced through the cylinder) and the other being designated as the “nonsocial side.” (where the cylinder is empty). Multiple holes (0.5 in diameter each) are evenly spaced over the surface of the two cylinders.
Each of the mice to be tested was housed individually for 3 days before the social withdrawal behavior evaluation study was performed. During the study, the response (i.e., social approach) of a test mouse to a novel (unfamiliar) “stimulus” was observed within 5 minutes after the mouse was exposed to the stimulus. A “social approach score” was calculated for each mouse according to the time it spent in each of the three chambers as follows: +1 for each second spent in the social side chamber, 0 for each second spent in the center chamber, and −1 for each second spent in the nonsocial side chamber. The “social approach change score” was calculated by subtracting the value of “social approach score in the absence of stimulus mouse” condition from the value for “presence of stimulus mouse” condition.

[3] = NRG1+/- mice, much greater than in wild-type
[4] = male (FIG. 2 panel A), desipramine 20, imipramine 15, fluvoxamine 15, venlafaxine 15, duloxetine 20, escitalopram 30 mg/kg, saline −37.7±28.8
[5] = female, duloxetine 20, escitalopram 30 mg/kg, saline −60.4±40.2

Row | SMILES | effect on immobility time [1, 3] | effect on immobility time ([1]; wild-type mice) | social approach change score [2, 4] | social approach change score, effect [2] | further results
1 | CCCN(CCC)C1CCc2cccc(O)c2C1 (centres unmarked) [8-OH DPAT, 8-hydroxy-N,N-dipropyl-2-aminotetralin] |  |  |  |  | level of ErbB4 compared with untreated A172 cells (maximal effect) (ErbB4; 0.3 μM, 4 hours): 1.44±0.10 fold; level of NRG1 compared with untreated A172 cells (maximal effect) (NRG1; 0.3 μM, 4 hours): 1.44±0.12 fold
2 | COc1cc(CC(C)N)c(OC)cc1I (centres unmarked) [DOI] |  |  |  |  | effect on level of ErbB4 (ErbB4; 0.1-3 μM, 4 hours): did not show increased levels; effect on level of NRG1 (NRG1; 0.1-3 μM, 4 hours): did not show increased levels
3 | CNCCCN1c2ccccc2CCc2ccccc21 [desipramine] | decreased | only slightly affected | 122.7±31.0 | not significantly different | immobility ([1]; C57BL/6 wild-type mice, desipramine 50 mg/kg, saline 101.4±16.4 sec): 58.6 ± 11.0 s; immobility period ([1]; NRG1+/- mice, control NRG1+/- = 122.8%, p<0.01): 36.5±18.0%; immobility period ([1]; wild-type mice, control wild-type = 100.0%, p=0.24): 65.7±24.5%
4 | CNCC[C@H](Oc1cccc2ccccc12)c1cccs1 [duloxetine] |  |  | 78.7±28.5 | not significantly different | social approach change score [2, 5]: 103.7±30.8
5 | CN(C)CCC[C@@]1(c2ccc(F)cc2)OCc2cc(C#N)ccc21 [escitalopram] |  |  | 175.3±60.4 | not significantly different | social approach change score [2, 5]: 110.1±41.9
6 | COCCCC/C(=N\OCCN)c1ccc(C(F)(F)F)cc1 [fluvoxamine] |  |  | 98.6±15.9 | not significantly different | 
7 | CN(C)CCCN1c2ccccc2CCc2ccccc21 [imipramine] | decreased | only slightly affected | 138.7±18.8 | not significantly different | 
8 | NCCc1c[nH]c2ccc(O)cc12 [serotonin] |  |  |  |  | level of ErbB4 compared to saline control (ErbB4; serotonin 10 μM, p<0.05): 1.7±0.1 fold; level of NRG1 compared to saline control (NRG1; serotonin 10 μM, p<0.05): 1.4±0.06 fold
9 | COc1ccc(C(CN(C)C)C2(O)CCCCC2)cc1 (centres unmarked) [venlafaxine] | decreased | only slightly affected | 61.9±24.7 | not significantly different | 
